Data on three molecules can be found in patent publication US4435410A, “3-[2-(3-Alkyl and alkenyl-4-piperidyl)-ethyl]-indoles for inhibiting serotonin uptake and for releasing serotonin” (Pharmindustrie, priority 1981, dated 1984).

Data set [1] has as its system human blood platelets (release of serotonin). As to the kind of experiment: Release of serotonin from human blood platelets. It counts as cell-based. The following applies: Platelet, product concentration 5 × 10^-5 moles per liter, compared with controls, read-out: Percent of increased serotonin release. Here is the method:
The ability of products to inhibit the uptake of serotonin or to cause its release has been shown on human blood platelets according to J. L. David and Coll. "Platelets Function and Thrombosis, a Review of Methods", p.
The action of the products on the release of serotonin is tested at a concentration of 5×10^-5 moles per liter.

The subject of data set [2] is human blood platelets (uptake of serotonin). As to the kind of experiment: Inhibition of the uptake of serotonin by human blood platelets. The data set is classed as cell-based. The following applies: Platelet, read-out: Inhibition of serotonin uptake I50. An excerpt:
It is known that the uptake of serotonin by the blood platelets constitutes a good model for the uptake of this amine by the neurons (cf. J. Tuomisto, J. Pharm. Pharmac., 26. 92 (1974). When it is applied to the study of medicaments, a method which makes use of the blood platelets is very attractive from the point of view of allowing human cells to be used, thereby giving it good prospects.
The ability of products to inhibit the uptake of serotonin or to cause its release has been shown on human blood platelets according to J. L. David and Coll. "Platelets Function and Thrombosis, a Review of Methods", p. 335 (Plenum Press, London, 1972).
(1) Inhibition of the uptake of serotonin
The results are expressed by a 50% inhibiting dose or I50 which represents the dose of the product in micromoles per liter, reducing the uptake of serotonin by 50%.

Data set [3] in a line: Acute toxicity in male mice by oral administration. The following applies: mouse, in vivo; male mice CD1, oral, after 3 days' observation, cumulative method. Here is the method: The acute toxicity of the products was determined in male mice CD1 (Charles RIVER) by oral administrations. The LD50 which was calculated after 3 days' observation, by the cumulative method of J. J. Reed and Coll. (Am. J. Hyg. 27, 493-1938) is 225 mg/kg for the compound of Example 1, and about 200 mg/kg for the compound of Example 4.

Turning to `C=C[C@H]1CNCC[C@H]1CCc1c[nH]c2ccccc12` [Example 1, 3-[2-(3(R)VINYL-4(R)PIPERIDYL)-ETHYL]-INDOLE], the activation at 50 µM in data set [1] was determined as 84%. Besides, the IC50 in data set [2] is 8 nM. The LD50 (in general, the dose at which mortality reaches 50%) at 72 h in data set [3] was 225 mg/kg.

Regarding `CC[C@H]1CNCC[C@H]1CCc1c[nH]c2ccccc12` [Example 2, 3-{2-[3(R)ETHYL-4(R)PIPERIDYL]-ETHYL}-INDOLE], the activation at 50 µM in data set [1] stood at 75%. The IC50 in data set [2] came out at 60 nM.

Consider `C=C[C@@H]1CNCC[C@H]1CCc1c[nH]c2ccccc12` [Example 4, 3-{2-[3(S)VINYL-4(R)PIPERIDYL]-ETHYL}-INDOLE], for which the activation at 50 µM in data set [1] was 91%. In addition, the IC50 in data set [2] was determined as 35 nM. The molecule also came in with an LD50 at 72 h in data set [3] of about 200 mg/kg.
